Experimental data as given in patent US10322111B2, “Chemokine receptor binding heterocyclic compounds with enhanced efficacy” (Genzyme Corporation, priority 2001, dated 2019).
Like-named read-outs stand apart in the source and are kept apart here.

Columns and labels:
[1] = system: CFU-GM, BFU-E and CFU-GEMM progenitor cells; conditions: for Cycling Status of Progenitors, CFU-GM / Cycling Status of Progenitors, CFU-GM, AGAR Culture / Cycling Status of Progenitors, BFU-E / Cycling Status of Progenitors, CFU-GEMM: 80 μg/kg s.c.
[2] = system: granulocyte macrophage (CFU-GM), erythroid (BFU-E), and multipotential (CFU-GEMM) progenitor cells; conditions: mice; for Fold Change Compared to Time 0, Progenitors, BFU-E / Fold Change Compared to Time 0, Progenitors, CFU-GEMM / Fold Change Compared to Time 0, Progenitors, GM / Absolute Progenitors Per ML Blood, BFU-E / Absolute Progenitors Per ML Blood, CFU-GEMM / Absolute Progenitors Per ML Blood, CFU-GM: methylcellulose culture; for Absolute Number Progenitors Per ML Blood, BFU-E / Absolute Number Progenitors Per ML Blood, CFU-GEMM / Absolute Number Progenitors Per ML Blood, CFU-GM: 1 hour post administration; for Absolute Progenitors Per ML Blood, BFU-E / Absolute Progenitors Per ML Blood, CFU-GEMM / Absolute Progenitors Per ML Blood, CFU-GM: single s.c. 5 mg/Kg

Structure (SMILES): c1cc(CN2CCCNCCNCCCNCC2)ccc1CN1CCCNCCNCCCNCC1 [AMD3100, 1,1′-[1,4-phenylene-bis(methylene)]-bis-1,4,8,11-tetraazacyclotetradecane]
- Cycling Status of Progenitors, CFU-GM ([1]; P4, T = 3 h after injection): 5%
- Cycling Status of Progenitors, CFU-GM, AGAR Culture ([1]; P4, T = 3 h after injection): 0%
- Cycling Status of Progenitors, BFU-E ([1]; P4, T = 6 h after injection): 0%
- Cycling Status of Progenitors, CFU-GEMM ([1]; P4, T = 6 h after injection): 8%
- Cycling Status of Progenitors, CFU-GM ([1]; P4, T = 6 h after injection): 0%
- Cycling Status of Progenitors, CFU-GM, AGAR Culture ([1]; P4, T = 6 h after injection): 0%
- Cycling Status of Progenitors, BFU-E ([1]; P4, T = 9 h after injection): 0%
- Cycling Status of Progenitors, CFU-GEMM ([1]; P4, T = 9 h after injection): 0%
- Cycling Status of Progenitors, CFU-GM ([1]; P4, T = 9 h after injection): 0%
- Cycling Status of Progenitors, CFU-GM, AGAR Culture ([1]; P4, T = 9 h after injection): 0%
- Cycling Status of Progenitors, BFU-E ([1]; P4, T = 24 h after injection): 3%
- Cycling Status of Progenitors, CFU-GEMM ([1]; P4, T = 24 h after injection): 0%
- Cycling Status of Progenitors, CFU-GM ([1]; P4, T = 24 h after injection): 5%
- Cycling Status of Progenitors, CFU-GM, AGAR Culture ([1]; P4, T = 24 h after injection): 0%
- Cycling Status of Progenitors, BFU-E ([1]; P5, T = 1 h after injection): 0%
- Cycling Status of Progenitors, CFU-GEMM ([1]; P5, T = 1 h after injection): 0%
- Cycling Status of Progenitors, CFU-GM ([1]; P5, T = 1 h after injection): 0%
- Cycling Status of Progenitors, CFU-GM, AGAR Culture ([1]; P5, T = 1 h after injection): 3%
- Cycling Status of Progenitors, BFU-E ([1]; P5, T = 3 h after injection): 3%
- Cycling Status of Progenitors, CFU-GEMM ([1]; P5, T = 3 h after injection): 0%
- Cycling Status of Progenitors, CFU-GM ([1]; P5, T = 3 h after injection): 5%
- Cycling Status of Progenitors, CFU-GM, AGAR Culture ([1]; P5, T = 3 h after injection): 0%
- Cycling Status of Progenitors, BFU-E ([1]; P5, T = 6 h after injection): 1%
- Cycling Status of Progenitors, CFU-GEMM ([1]; P5, T = 6 h after injection): 0%
- Cycling Status of Progenitors, CFU-GM ([1]; P5, T = 6 h after injection): 0%
- Cycling Status of Progenitors, CFU-GM, AGAR Culture ([1]; P5, T = 6 h after injection): 1%
- Cycling Status of Progenitors, BFU-E ([1]; P5, T = 9 h after injection): 0%
- Cycling Status of Progenitors, CFU-GEMM ([1]; P5, T = 9 h after injection): 0%
- Cycling Status of Progenitors, CFU-GM ([1]; P5, T = 9 h after injection): 0%
- Cycling Status of Progenitors, CFU-GM, AGAR Culture ([1]; P5, T = 9 h after injection): 0%
- Cycling Status of Progenitors, BFU-E ([1]; P5, T = 24 h after injection): 0%
- Cycling Status of Progenitors, CFU-GEMM ([1]; P5, T = 24 h after injection): 0%
- Cycling Status of Progenitors, CFU-GM ([1]; P5, T = 24 h after injection): 0%
- Cycling Status of Progenitors, CFU-GM, AGAR Culture ([1]; P5, T = 24 h after injection): 0%
- cycling state of progenitors ([1]; human donors, prior to and 1, 3, 6, 9 and 24 hours after injection): slow or non-cycling state
- Fold Change Compared to Time 0, Progenitors, BFU-E ([2]; Time 2′): 2.07 fold
- Fold Change Compared to Time 0, Progenitors, CFU-GEMM ([2]; Time 2′): 1.85 fold
- Fold Change Compared to Time 0, Progenitors, GM ([2]; Time 2′): 2.86 fold
- Fold Change Compared to Time 0, Progenitors, BFU-E ([2]; Time 15″): 2.72 fold
- Fold Change Compared to Time 0, Progenitors, CFU-GEMM ([2]; Time 15″): 3.51 fold
- Fold Change Compared to Time 0, Progenitors, GM ([2]; Time 15″): 2.73 fold
- Fold Change Compared to Time 0, Progenitors, BFU-E ([2]; Time 30″): 4.24 fold
- Fold Change Compared to Time 0, Progenitors, CFU-GEMM ([2]; Time 30″): 4.41 fold
- Fold Change Compared to Time 0, Progenitors, GM ([2]; Time 30″): 6.23 fold
- Absolute Number Progenitors Per ML Blood, BFU-E ([2]; single s.c. 1 mg/kg): 62 Per ML Blood
- Absolute Number Progenitors Per ML Blood, CFU-GEMM ([2]; single s.c. 1 mg/kg): 27.1 Per ML Blood
- Absolute Number Progenitors Per ML Blood, CFU-GM ([2]; single s.c. 1 mg/kg): 424 Per ML Blood
- Absolute Number Progenitors Per ML Blood, BFU-E ([2]; single s.c. 2.5 mg/kg): 98.9 Per ML Blood
- Absolute Number Progenitors Per ML Blood, CFU-GEMM ([2]; single s.c. 2.5 mg/kg): 70.6 Per ML Blood
- Absolute Number Progenitors Per ML Blood, CFU-GM ([2]; single s.c. 2.5 mg/kg): 687.6 Per ML Blood
- Absolute Progenitors Per ML Blood, BFU-E ([2]; 15″): 134.5 Per ML Blood
- Absolute Progenitors Per ML Blood, CFU-GEMM ([2]; 15″): 90.4 Per ML Blood
- Absolute Progenitors Per ML Blood, CFU-GM ([2]; 15″): 791.6 Per ML Blood
- Absolute Progenitors Per ML Blood, BFU-E ([2]; 30″): 209.3 Per ML Blood
- Absolute Progenitors Per ML Blood, CFU-GEMM ([2]; 30″): 113.5 Per ML Blood
- Absolute Progenitors Per ML Blood, CFU-GM ([2]; 30″): 1805.5 Per ML Blood
- Absolute Progenitors Per ML Blood, BFU-E ([2]; 120″): 102.3 Per ML Blood
- Absolute Progenitors Per ML Blood, CFU-GEMM ([2]; 120″): 47.6 Per ML Blood
- Absolute Progenitors Per ML Blood, CFU-GM ([2]; 120″): 828.7 Per ML Blood
- Absolute Number Progenitors Per ML Blood, BFU-E ([2]; single s.c. 5 mg/kg): 92.8 Per ML Blood
- Absolute Number Progenitors Per ML Blood, CFU-GEMM ([2]; single s.c. 5 mg/kg): 69.5 Per ML Blood
- Absolute Number Progenitors Per ML Blood, CFU-GM ([2]; single s.c. 5 mg/kg): 608.4 Per ML Blood
- Absolute Number Progenitors Per ML Blood, BFU-E ([2]; single s.c. 10 mg/kg): 120.5 Per ML Blood
- Absolute Number Progenitors Per ML Blood, CFU-GEMM ([2]; single s.c. 10 mg/kg): 79.8 Per ML Blood
- Absolute Number Progenitors Per ML Blood, CFU-GM ([2]; single s.c. 10 mg/kg): 825.6 Per ML Blood
